Assay results from patent US20240228488A1 (TAKEDA PHARMACEUTICAL COMPANY LIMITED, priority 2021, published 2024).
pEC50: −log10 of the molar value.

Columns and labels:
[1] = target: T1, plasma kallikrein (Homo sapiens, UniProt P03952); experiment: Neat human plasma assay, FXIIa contact pathway-activated, PFR-AMC substrate; assay type: biochemical; settings: citrated human plasma 78% final, 10 nM human FXIIa, 100 μM PFR-AMC; read-out: Human Plasma Assay: IC90
T1 construct: from tissue
Procedure, shortened: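 Compound inhibition of plasma kallikrein measured as PFR-AMC (100 μM) cleavage rate over 5 min at room temperature in 78% citrated human plasma activated with 10 nM FXIIa (Tris pH 7.5 buffer). IC50/IC90 from 4-parameter fit of rate versus inhibitor concentration.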

[2] = target: human activated kallikrein enzyme (Homo sapiens, UniProt P03952); experiment: Plasma kallikrein inhibition, fluorogenic PFR-AMC substrate, 500 pM activated kallikrein format; assay type: biochemical; settings: 500 pM activated kallikrein, 300 uM PFR-AMC, 30 min preincubation, 10 min reaction; read-out: Primary Dose Response Assay: Average EC50
Procedure, shortened: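 Fluorescence (ex 380/em 460 nm) is read after 10 min of 300 uM PFR-AMC turnover by 500 pM enzyme at RT. Compounds sit with enzyme for 30 min beforehand. Buffer is Tris (pH 7.5) with EDTA, NaCl, PEG-400 and Triton X-100; EC50 values are banded.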

human activated kallikrein enzyme, sequence (P03952 391-638 limits assumed): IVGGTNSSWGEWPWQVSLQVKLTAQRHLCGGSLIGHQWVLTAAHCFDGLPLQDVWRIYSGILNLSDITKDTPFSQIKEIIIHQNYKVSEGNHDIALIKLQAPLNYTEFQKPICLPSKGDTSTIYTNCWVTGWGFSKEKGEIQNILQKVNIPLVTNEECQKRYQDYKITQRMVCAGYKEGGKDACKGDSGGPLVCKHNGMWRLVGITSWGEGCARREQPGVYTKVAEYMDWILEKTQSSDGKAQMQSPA
human activated kallikrein enzyme, sequence (P03952 20-390 partner limits assumed): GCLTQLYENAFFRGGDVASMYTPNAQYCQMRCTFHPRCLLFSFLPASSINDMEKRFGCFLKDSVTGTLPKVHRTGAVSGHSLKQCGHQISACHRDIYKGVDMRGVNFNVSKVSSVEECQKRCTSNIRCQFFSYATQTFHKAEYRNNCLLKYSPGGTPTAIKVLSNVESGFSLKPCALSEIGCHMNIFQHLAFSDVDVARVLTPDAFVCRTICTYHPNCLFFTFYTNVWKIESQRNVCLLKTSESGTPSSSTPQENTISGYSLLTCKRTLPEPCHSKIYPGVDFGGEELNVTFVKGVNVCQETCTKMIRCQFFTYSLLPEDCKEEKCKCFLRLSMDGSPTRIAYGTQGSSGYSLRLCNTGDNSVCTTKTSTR
T1 sequence (P03952 391-638 limits assumed): as the sequence (P03952 391-638 limits assumed) above
T1 sequence (P03952 20-390 partner limits assumed): as the sequence (P03952 20-390 partner limits assumed) above

IC90 [1] [nM]	pEC50 [2]	Compound
400 to 1500	> 9.00	CS(=O)(=O)c1cc(C2CC2)cn2cc(CNc3ccnc(NC(=O)[C@H]4C[C@@H]4c4cccc(Cl)c4)c3)nc12 [Example I-235, (1S,2S)-2-(3-chlorophenyl)-N-(4-(((6-cyclopropyl-8-(methylsulfonyl)imidazo[1,2-a]pyridin-2-yl)methyl)amino)pyridin-2-yl)cyclopropane-1-carboxamide]
400 to 1500	> 9.00	O=C(Nc1cc(NCc2cn3cc(C4CC4)cc(N4CCN(C5COC5)CC4)c3n2)ccn1)[C@H]1C[C@@H]1c1cccc(Cl)c1 [Example I-233, (1S,2S)-2-(3-chlorophenyl)-N-(4-(((6-cyclopropyl-8-(4-(oxetan-3-yl)piperazin-1-yl)imidazo[1,2-a]pyridin-2-yl)methyl)amino)pyridin-2-yl)cyclopropane-1-carboxamide]
400 to 1500	> 9.00	CN1C(=O)CN(c2cc(C3CC3)cn3cc(CNc4cc(NC(=O)[C@H]5C[C@@H]5c5nc(Cl)ccc5C#N)ncn4)nc23)C1=O (racemic) [Example I-167, rac-(1S*,2S*)-2-(6-chloro-3-cyanopyridin-2-yl)-N-(6-(((6-cyclopropyl-8-(3-methyl-2,4-dioxoimidazolidin-1-yl)imidazo[1,2-a]pyridin-2-yl)methyl)amino)pyrimidin-4-yl)cyclopropane-1-carboxamide]
10000 to 48000	8.00 to 9.00	O=C(Nc1cc(NCc2cn3cc(C4CC4)ccc3n2)ccn1)[C@H]1C[C@@H]1c1cc(Cl)cs1 (racemic) [Example I-219, rac-(1S*,2S*)-2-(4-chlorothiophen-2-yl)-N-(4-(((6-cyclopropylimidazo[1,2-a]pyridin-2-yl)methyl)amino)pyridin-2-yl)cyclopropane-1-carboxamide]
1500 to 10000	> 9.00	O=C(Nc1cc(NCc2cn3cc(C4CC4)cc(N4CCN(C5CC5)CC4)c3n2)ccn1)[C@H]1C[C@@H]1c1cccc(Cl)c1 [Example I-232, (1S,2S)-2-(3-chlorophenyl)-N-(4-(((6-cyclopropyl-8-(4-cyclopropylpiperazin-1-yl)imidazo[1,2-a]pyridin-2-yl)methyl)amino)pyridin-2-yl)cyclopropane-1-carboxamide]
1500 to 10000	> 9.00	O=C(Nc1cc(NCc2cn3cc(C4CC4)ccc3n2)ccn1)[C@H]1C[C@@H]1c1cc(Cl)ccn1 (single isomer, unassigned) [Example I-270, rac-(1S*,2S*)-2-(4-chloropyridin-2-yl)-N-(4-(((6-cyclopropylimidazo[1,2-a]pyridin-2-yl)methyl)amino)pyridin-2-yl)cyclopropane-1-carboxamide]
< 400	> 9.00	CN1CCC(F)(c2cc(C3CC3)cn3cc(CNc4ccnc(NC(=O)[C@H]5C[C@@H]5c5cccc(Cl)c5)c4)nc23)CC1 [Example I-229, (1S,2S)-2-(3-chlorophenyl)-N-(4-(((6-cyclopropyl-8-(4-fluoro-1-methylpiperidin-4-yl)imidazo[1,2-a]pyridin-2-yl)methyl)amino)pyridin-2-yl)cyclopropane-1-carboxamide]
10000 to 48000	8.00 to 9.00	CC(C)(O)c1cc(C2CC2)cn2cc(CNc3cc(NC(=O)[C@H]4C[C@@H]4c4cccc(Cl)c4)ncn3)nc12 [Example I-159, (1S,2S)-2-(3-chlorophenyl)-N-(6-(((6-cyclopropyl-8-(2-hydroxypropan-2-yl)imidazo[1,2-a]pyridin-2-yl)methyl)amino)pyrimidin-4-yl)cyclopropane-1-carboxamide]

Second part, the molecule before the results:

Compound	IC90 [1] [nM]	pEC50 [2]
Cc1ccnc([C@H]2C[C@@H]2C(=O)Nc2cc(N3C[C@@H](O)C[C@@H]3c3cn4cc(C5CC5)cc(N5CC6CC6C5=O)c4n3)ncn2)n1 (relative stereo) [Example 482, rac-(1S*,2S*)—N-(6-((2R,4S)-2-(6-cyclopropyl-8-(2-oxo-3-azabicyclo[3.1.0]hexan-3-yl)imidazo[1,2-a]pyridin-2-yl)-4-hydroxypyrrolidin-1-yl)pyrimidin-4-yl)-2-(4-methylpyrimidin-2-yl)cyclopropane-1-carboxamide]	400 to 1500	> 9.00
CC(=O)Nc1cc(C2CC2)cn2cc(CNc3ccnc(NC(=O)[C@H]4C[C@@H]4c4cccc(Cl)c4)c3)nc12 [Example 142, (1S,2S)-N-(4-(((8-acetamido-6-cyclopropylimidazo[1,2-a]pyridin-2-yl)methyl)amino)pyridin-2-yl)-2-(3-chlorophenyl)cyclopropane-1-carboxamide]	1500 to 10000	> 9.00
Cc1ccnc([C@H]2C[C@@H]2C(=O)Nc2nc(C)nc(N(C)Cc3cn4cc(C5CC5)cc(N5CC(=O)NC5=O)c4n3)n2)n1 (racemic) [Example 524, rac-(1S*,2S*)-N-(4-(((6-cyclopropyl-8-(2,4-dioxoimidazolidin-1-yl)imidazo[1,2-a]pyridin-2-yl)methyl)(methyl)amino)-6-methyl-1,3,5-triazin-2-yl)-2-(4-methylpyrimidin-2-yl)cyclopropane-1-carboxamide]	400 to 1500	> 9.00
COCCOCCN1C(=O)CN(c2cc(C3CC3)cn3cc(CNc4cc(NC(=O)[C@H]5C[C@@H]5c5nccc(C)n5)ncn4)nc23)C1=O [Example 382, (1S,2S)-N-(6-(((6-cyclopropyl-8-(3-(2-(2-methoxyethoxy)ethyl)-2,4-dioxoimidazolidin-1-yl)imidazo[1,2-a]pyridin-2-yl)methyl)amino)pyrimidin-4-yl)-2-(4-methylpyrimidin-2-yl)cyclopropane-1-carboxamide]	< 400	> 9.00
O=C(Nc1cc(NCc2cn3cc(C4CC4)cc(C4CNC4)c3n2)ccn1)[C@H]1C[C@@H]1c1cccc(Cl)c1 [Example 284, (1S,2S)—N-(4-(((8-(azetidin-3-yl)-6-cyclopropylimidazo[1,2-a]pyridin-2-yl)methyl)amino)pyridin-2-yl)-2-(3-chlorophenyl)cyclopropane-1-carboxamide]	< 400	> 9.00
O=C1CN(c2cc(C3CC3)cn3cc(CNc4cc(NC(=O)[C@H]5C[C@@H]5c5cc(Cl)ccn5)nc(O)n4)nc23)C(=O)N1 [Example 487, (1S,2S)-2-(4-chloropyridin-2-yl)-N-(6-(((6-cyclopropyl-8-(2,4-dioxoimidazolidin-1-yl)imidazo[1,2-a]pyridin-2-yl)methyl)amino)-2-hydroxypyrimidin-4-yl)cyclopropane-1-carboxamide]	< 400	> 9.00
O=C(Nc1ncnc(NCc2cn3cc(C4CC4)ccc3n2)n1)[C@H]1C[C@@H]1c1cccc(Cl)c1 (racemic) [Example 344, (rac-(1S*,2S*))-2-(3-chlorophenyl)-N-(4-(((6-cyclopropylimidazo[1,2-a]pyridin-2-yl)methyl)amino)-1,3,5-triazin-2-yl)cyclopropane-1-carboxamide]	1500 to 10000	8.00 to 9.00
O=C(Nc1cc(NCc2cn3cc(C4CC4)ccc3n2)ncn1)[C@H]1C[C@@H]1c1cc(Cl)ccc1Cl (racemic) [Example 49, rac-(1S*,2S*)-N-(6-(((6-cyclopropylimidazo[1,2-a]pyridin-2-yl)methyl)amino)pyrimidin-4-yl)-2-(2,5-dichlorophenyl)cyclopropane-1-carboxamide]	< 400	6.00 to 7.00
O=C(Nc1cc(NCc2cn3cc(C4CC4)cc(N4CCCC4=O)c3n2)ncn1)[C@H]1C[C@@H]1c1cccc(Cl)c1 [Example 144, (1S,2S)-2-(3-chlorophenyl)-N-(6-(((6-cyclopropyl-8-(2-oxopyrrolidin-1-yl)imidazo[1,2-a]pyridin-2-yl)methyl)amino)pyrimidin-4-yl)cyclopropane-1-carboxamide]	400 to 1500	> 9.00
Cc1ccnc([C@H]2C[C@@H]2C(=O)Nc2cc(N[C@H](C)c3cn4cc(C5CC5)cc(N5CC(=O)N(C)C5=O)c4n3)ncn2)n1 (single isomer, unassigned) [Example 451]	400 to 1500	> 9.00
O=C(Nc1cc(NCc2cn3cc(C4CC4)cc(N4CCNC4=O)c3n2)ncn1)[C@H]1C[C@@H]1c1cc(Cl)ccn1 [Example 394, (1S,2S)-2-(4-chloropyridin-2-yl)-N-(6-(((6-cyclopropyl-8-(2-oxoimidazolidin-1-yl)imidazo[1,2-a]pyridin-2-yl)methyl)amino)pyrimidin-4-yl)cyclopropane-1-carboxamide]	400 to 1500	> 9.00
CCN1C(=O)CN(c2cc(C3CC3)cn3cc(CNc4cc(NC(=O)[C@H]5C[C@@H]5c5nccc(C)n5)ncn4)nc23)C1=O [Example 385, (1S,2S)-N-(6-(((6-cyclopropyl-8-(3-ethyl-2,4-dioxoimidazolidin-1-yl)imidazo[1,2-a]pyridin-2-yl)methyl)amino)pyrimidin-4-yl)-2-(4-methylpyrimidin-2-yl)cyclopropane-1-carboxamide]	< 400	> 9.00
Cc1ccnc([C@H]2C[C@@H]2C(=O)Nc2cc(OCc3cn4cc(C5CC5)cc(N5CC(=O)N(CCN(C)C)C5=O)c4n3)nc(C)n2)n1 [Example 564, (1S,2S)-N-(6-((6-cyclopropyl-8-(3-(2-(dimethylamino)ethyl)-2,4-dioxoimidazolidin-1-yl)imidazo[1,2-a]pyridin-2-yl)methoxy)-2-methylpyrimidin-4-yl)-2-(4-methylpyrimidin-2-yl)cyclopropane-1-carboxamide]	< 400	> 9.00
